# Assay results taken from publication PMC6259308, “Preparation and Properties of New Co-Crystals of Ibandronate with Gluco- or Galactopyranoside Derivatives” (Molecules, 2010).
# Columns and labels:
# [1] = cited from earlier work
# [2] = In vitro screening of absorption (PAMPA experiments); type: in vitro ADME
# Procedure: The permeability of ibandronate (as a control sample) and samples 1-3, 6 and 7 was tested. To retain interactions of both components in the solution it is recommended to increase the concentration of the counterion in the applied mixture. Therefore samples 1-3, 6 and 7 with the addition of sixfold quantity of phenyl-β-D-galactopyranoside to the co-crystal solution were also evaluated.
# The permeability of generated co-crystals was evaluated in vitro, using a vertical PAMPA (Parallel Artificial Membrane Permeability Assay) system (BD GentestTMPre-Coated PAMPA Plate System, 96 wells, http://www.bdbeurope.com). The donor samples were prepared by dissolving the tested potential co-crystals in 0.01 M HCl, and than pH was adjusted by bicarbonate buffer to pH 7.4. The control sample was prepared in the same manner from ibandronate standards. A carbonate buffer saline (physiological solution) with pH 7.4 was used as a receptor phase. About 0.5 h before the experiment the PAMPA system was taken out from the freezer and warmed up to the ambient temperature. The receptor phase (200 μL/well) was pipetted into the upper wells. The donor phase was pipetted into the lower ones (300 μL/well). After the incubation time (5 h) 10 μL of the acceptor phase was taken from each well and mixed with physiological solution (990 μL). At least five determinations were performed. […]
structure (smiles),measurement,setting,value
"CCCCCN(C)CCC(O)(P(=O)([O-])O)P(=O)(O)O.[Na+] [IBN monosodium salt, sodium hydrogen {1-hydroxy-3-[methyl(pentyl)amino]-1-phosphonopropyl}phosphonate]",Solubility in organic solvents,[1]; organic solvents,practically insoluble
same,Solubility in water,[1]; water,freely soluble
same,"Absorption in PAMPA (in words, relative to ibandronate control)","[2]; PAMPA, pH 7.4, 5 h",highest absorption
same,"Concentration in acceptor solutions of PAMPA plates, Conc.","[2]; donor and receptor phase pH 7.4, incubation 5 h, calculated from 5 experiments, samples 1a-7a with sixfold quantity of phenyl-β-D-galactopyranoside added to the co-crystal solution",2400 ng/mL
